Columns and labels:
Design in all cases: dose 2.5 mg/kg, route intraperitoneal
[1] = test system: Serum; test: Drug uptake in C57BL/6J mouse serum at 2.5 mg/kg, ip measured at 10 to 60 mins by CE-UV analysis; format: ADME, organism-based; conditions: in vivo
[2] = test system: Brain; test: Drug uptake in C57BL/6J mouse brain at 2.5 mg/kg, ip measured at 4 hrs by CE-UV analysis; format: ADME, organism-based; conditions: in vivo
[3] = Drug uptake in C57BL/6J mouse eye at 2.5 mg/kg, ip measured at 10 hrs by CE-UV analysis; format: ADME, organism-based; conditions: in vivo
[4] = test system: Serum; test: Half life in C57BL/6J mouse serum at 2.5 mg/kg, ip; format: ADME, organism-based; conditions: in vivo
[5] = Drug uptake in C57BL/6J mouse CSF at 2.5 mg/kg, ip measured at 4 to 10 hrs by CE-UV analysis; format: ADME, organism-based, Cerebrospinal fluid; conditions: in vivo
[6] = test system: Serum; test: AUC in C57BL/6J mouse serum at 2.5 mg/kg, ip by CE-UV analysis; format: ADME, organism-based, Plasma; conditions: in vivo
[7] = AUC in C57BL/6J mouse CSF at 2.5 mg/kg, ip by CE-UV analysis; format: ADME, organism-based

For `CN1C(=O)N[C@H]2[C@@H]3NC(=O)c4ccc(Br)n4[C@@H]3C[C@]21O` [AGELASTATIN A], the Drug uptake [1] was “Active”, the Drug uptake [2] was “Active” and the Drug uptake [3] was “Active”. The t1/2 [4] was 12 h, the Drug uptake [5] was “Active” and the AUC [6] was 33.8 µM·h. For the same compound, the AUC [7] was 3.41 µM·h.
